The structures appear in SMILES notation.

The values below come from US20260115177A1, “MEDICINAL PRODUCTS AND METHODS FOR THE ALLEVIATION OF CANCER IMMUNOTHERA-PY-ASSOCIATED CYTOKINE RELEASE SYNDROME” (POOLBEG PHARMA (UK) LIMITED, priority 2023, published 2026).

Test [1] has as its system CAR T cells. The conditions noted are these: in vitro expansion; inhibitor washed out before adoptive transfer; cited from earlier work.
For test [2], the system named is HUVEC endothelial cells. Description: IL-6 and IL-8 ELISA of HUVEC cells treated with sCART-mono supernatant. Format: cell-based, human. Particulars: 24 hr, concentrations of Table 2. On the procedure: (§1) With reference to FIG. 13 of the accompanying drawings, a co-culture (100) is established using a standard cell culture transwell dish, including a first compartment (101), containing CAR T cells and cancer cells (at a 1:1 ratio), which is separated from a second compartment (102), containing monocytes, by a semi-permeable membrane (103) composed of tissue-culture treated polyethylene terephthalate with a 0.4 μm pore size.
(§2) Each of UR-13870, Acumapimod and Ralimetinib are administered to the co-culture following a procedure analogous to that described in Example 2 above (at the concentrations as shown in Table 2 above).
(§3) The co-culture is incubated at 37° C., 5% CO2 and a suitably humid environment for 24 hours. On completion, the transwell insert is removed and supernatant is isolated. Cells and debris are removed from the supernatant by exposing the container to a centripetal force of 400 G and gently pipetting the supernatant into a new container without disturbing the cell pellet at the bottom of the previous container.
(§4) Prior to adding the p38 inhibitors and sCART-mono, endothelial cells are incubated overnight at 37° C. and 5% CO2 in a suitably humid environment to allow the cells to adhere fully to the tissue culture dish.
Supernatant levels of IL-6 and IL-8 are determined following 24 hr treatment with sCART-mono and the p38 MAPK inhibitors by ELISA.

In test [3] the test system is HUVEC endothelial cells. Description: IL-6 and IL-8 ELISA of HUVEC endothelial cells treated with sCAR. Format: cell-based, human. The conditions noted are these: sCAR stimulation, 24 hours; concentrations of Table 2. On the procedure:
(§5) In like manner and also in Example 3 below, sCAR (or smCAR) is added to endothelial (HUVEC) cells, available from the American Type Culture Collection, and using an equivalent protocol to the treatment of THP-1 cells (but with individually optimised conditions, such as the concentration of sCAR used), following which IL-6 release and IL-8 release are observed. Pro-inflammatory cytokines IL-6 and IL-8 are measured using an enzyme-linked immunosorbent assay (ELISA) and IL-6, ICAM1 and VCAM1 are measured by quantitative PCR (QPCR, for which a kit is suitably obtainable from Thermo Fisher Scientific of Kingfisher Dr, Swindon SN3 5BZ, UK).
(§6) sCAR (or smCAR), produced as described in Example 1 above, is added to a monoculture of HUVEC endothelial cells in the presence of UR-13870, Ralimetinib or Acumapimod at each of the concentrations shown in Table 2 above, at 37° C., 5% CO2 and a suitably humid environment for 24 hours.
Supernatant levels of IL-6 and IL-8 from the HUVEC endothelial cell monoculture with sCAR (or smCAR) are determined by ELISA.

In test [4] the test system is HUVEC endothelial cells. Description: QPCR of ICAM1 in HUVEC cells treated with sCART-mono supernatant. Format: cell-based, human. Particulars: 24 hours. The procedure: as §1, §2, §3, §4
Reduced endothelial cell activation is evidenced by reduced ICAM1 expression in response to treatment with UR-13870, Acumapimod and Ralimetinib.

Another test relates to CD19+ cancer cells. As to the kind of experiment: CAR T cell killing of tumour cells in 24-hour co-culture (flow cytometry). Format: cell-based, human. The conditions noted are these: high dose only, CAR T to cancer cell ratio 1:1. The source says:
Raji immortalized human B cell line CD19-expressing cancer cells (available from the American Type Culture Collection) are acquired and stable transfection of the Raji cell line is generated with an mCherry reporter protein to facilitate identification of the cancer cells within co-cultures by detection of the mCherry protein fluorescence by flow cytometry.
(§7) UR-13870, Ralimetinib or Acumapimod are each added to a culture of CD19+ cancer cells (using a micropipette to transfer the correct volume to achieve the desired final concentration in Table 2).
(§8) CAR T cells are then added to the same culture 5-10 minutes later. In brief, CAR T cell concentrations per ml are determined and used to aliquot the desired number of CAR T cells into the culture to achieve the described 1:1 CAR T to cancer cell ratio.
(§9) The co-culture containing CAR T cells and tumour cells is swirled gently to ensure homogenous dispersion of cells throughout the vessel. The resultant co-culture is incubated for 24 to 96 hours in a closed incubator at 37° C. with 5% CO2 and a suitably humid atmosphere.
Tumour cell death is observed by examining relative CAR T cell:tumour cell numbers by flow cytometry following 24 hour co-culture, as shown in FIG. 7.
(In general: A flow cytometer gives signals particle by particle.)

The test system of test [5] is CAR T cells. Description: CAR T cell proliferation in CAR T cell:cancer cell co-culture (Cell Trace Violet, flow cytometry). Format: cell-based, human. The conditions noted are these: CAR T:tumour cell co-culture 1:1; concentrations of Table 2. On the procedure:
CAR T cell proliferation is confirmed by Cell Trace™ Violet staining of CAR T cells (staining agent having been added prior to addition of the T cells to the co-cultures with tumour cells). Staining may be observed, following co-culture, via flow cytometry.
as §7, §8, §9

Test [6] has as its system CAR T cells. Description: T cell exhaustion markers TIM3 and LAG3 on CAR T cells in co-culture (flow cytometry). Format: cell-based, human. Particulars: CAR T:tumour cell co-culture, concentrations of Table 2; for number of LAG3+ CAR T cells: Ralimetinib 5 μM results to be disregarded. The procedure: as §7, §8, §9
Both T cell surface markers T cell immunoglobulin and mucin domain-containing protein 3 (TIM3/CD366) and Lymphocyte Activation Gene 3 (LAG3/CD223) are associated with T cell exhaustion and disease progression during immunotherapy treatment. Advantageously, all of UR-13870, Ralimetinib and Acumapimod reduce both the number of TIM3+ CAR T cells, and the number of LAG3+ CAR T cells. […] For LAG3+, the results for Ralimetinib at a 5 μM concentration appear to have been affected by experimental failure, and these may be disregarded accordingly.

The test system of the next test is THP-1 monocytes. Description: IL-6 ELISA of THP-1 monocytes treated with sCAR. Particulars: sCAR stimulation, 24 hours; concentrations of Table 2. Format: cell-based, human. The procedure: In Example 3 below, sCAR (or smCAR) is added using a micropipette to an in vitro culture of monocyte cells of the human monocytic cell line THP-1, available from the American Type Culture Collection. The culture is incubated in a closed incubator at 37° C. with 5% CO2 and a suitably humid atmosphere for approximately 24 hours, following which cytokine release is observed. p38 MAPK activation and cytokine release are confirmed by evaluation of the presence of IL-6 in THP-1 cells using an enzyme-linked immunosorbent assay (ELISA; for which a kit is suitably obtainable from Thermo Fisher Scientific of Kingfisher Dr, Swindon SN3 5BZ, UK).
(i) Monocytes sCAR (or smCAR), produced as described in Example 1 above, is added to a monoculture of THP-1 monocytes in the presence of UR-13870, Ralimetinib or Acumapimod at each of the concentrations shown in Table 2 above at 37° C., 5% CO2 and a suitably humid environment for 24 hours.
Supernatant levels of IL-6 from the THP-1 monocyte monoculture with sCAR (or smCAR) are determined by ELISA.

Test [7] concerns CAR T cells. As to the kind of experiment: TNFα immunosorbent assay of CAR T:tumour cell co-culture supernatant. Format: cell-based, human. The procedure: as §7, §8, §9
Cytokine release by T cells is also quantified by TNFα enzyme-based immunosorbent assays of co-culture supernatant, as shown in FIG. 9. Ralimetinib and Acumapimod reduced TNF-α secretion following treatment. Data for UR-13870 were discarded due to failures in the UR-13870 experimental procedure.

Test [8] deals with HUVEC endothelial cells. As to the kind of experiment: QPCR of VCAM1, ICAM1 and IL-6 in HUVEC cells treated with sCAR. Format: cell-based, human. Particulars: 24 hours. The procedure:
as §5, §6

As for `Cc1ccc(-n2nc(C(C)(C)C)cc2NC(=O)Nc2ccc(OCCN3CCOCC3)c3ccccc23)cc1` [Doramapimod/BIRB796], in the test on CAR T cells [1], the “CAR T cell phenotypes” value is “promote desirable CAR T cell phenotypes in vitro”.
In the case of `Cc1ccc(C(=O)NC2CC2)cc1-n1ncc(C(=O)c2cccc(C#N)c2)c1N` [Acumapimod, 3-[5-amino-4-(3-cyanobenzoyl)pyrazol-1-yl]-N-cyclopropyl-4-methylbenzamide], in the test on HUVEC endothelial cells [2], the “IL-6 levels in supernatant” value is listed as “reduced” and the “IL-8 levels in supernatant” value is on record as “(albeit non-significant) downward trend”. In the test with HUVEC endothelial cells [3], the “IL-6 secretion by HUVEC cells” value is reported as “significantly reduce” and the “IL-8 supernatant level, HUVEC cells” value is on record as “reduced”. In addition, in the test on HUVEC endothelial cells [4], the “ICAM1 expression (endothelial cell activation)” value is on record as “reduced”. In addition, in the test on CD19+ cancer cells, the “CAR T cell-induced cancer cell death (percentage of residual tumour cells in the co-culture)” value is “maintain CAR T cell-induced cancer cell death”. Moreover, the “CAR T cell proliferation (Cell Trace Violet staining)” value in the test with CAR T cells [5] is listed as “maintain CAR T cell proliferation”. Besides, in the test with CAR T cells [6], the “number of TIM3+ CAR T cells” value is “reduce” and the “number of LAG3+ CAR T cells” value is listed as “reduce”. Besides, the “IL-6 secretion by THP-1 monocytes” value in the test with THP-1 monocytes is “significantly reduce”. Further, the “TNF-α secretion (co-culture supernatant)” value in the test on CAR T cells [7] is recorded as “reduced”. In the test on HUVEC endothelial cells [8], the “ICAM1 mRNA levels” value is reported as “significantly reduce”; the “IL-6 mRNA levels” value is on record as “significantly reduce”; the “VCAM1 mRNA levels” value is listed as “reduced, albeit non-significantly”.
As to `CC(C)(C)Cn1c(N)nc2ccc(-c3[nH]c(C(C)(C)C)nc3-c3ccc(F)cc3)nc21` [Ralimetinib, 5-[2-tert-Butyl-4-(4-fluorophenyl)-1H-imidazol-5-yl]-3-(2,2-dimethylpropyl)imidazo[4,5-b]pyridin-2-amine], in the test with HUVEC endothelial cells [2], the “IL-6 levels in supernatant” value is on record as “reduced” and the “IL-8 levels in supernatant” value is “(albeit non-significant) downward trend”. Further, in the test with HUVEC endothelial cells [3], the “IL-6 secretion by HUVEC cells” value was “significantly reduce” and the “IL-8 supernatant level, HUVEC cells” value is “reduced”. Moreover, in the test on HUVEC endothelial cells [4], the “ICAM1 expression (endothelial cell activation)” value is on record as “reduced”. The “CAR T cell-induced cancer cell death (percentage of residual tumour cells in the co-culture)” value in the test on CD19+ cancer cells was “maintain CAR T cell-induced cancer cell death”. Also, in the test on CAR T cells [5], the “CAR T cell proliferation (Cell Trace Violet staining)” value is on record as “maintain CAR T cell proliferation”. Further, in the test with CAR T cells [6], the “number of TIM3+ CAR T cells” value is “reduce” and the “number of LAG3+ CAR T cells” value was “reduce”. For the same compound, the “IL-6 secretion by THP-1 monocytes” value with THP-1 monocytes is given as “significantly reduce”. For the same compound, the “TNF-α secretion (co-culture supernatant)” value with CAR T cells [7] is recorded as “reduced”. In the test with HUVEC endothelial cells [8], the “ICAM1 mRNA levels” value is “significantly reduce”; the “IL-6 mRNA levels” value is on record as “significantly reduce”; the “VCAM1 mRNA levels” value is on record as “reduced, albeit non-significantly”.
